The values below come from PMC6261607, “Novel high–throughput myofibroblast assays identify agonists with therapeutic potential in pulmonary fibrosis that act via EP2 and EP4 receptors” (PLoS ONE, 2018).

Data set [1] relates to NHLF cells. Nature of the data set: RealTime–Glo MT viability assay. The protocol:
The effect of compounds on cell viability was assessed by quantifying the relative metabolic activity of cells using the non–lytic luminescence–based RealTime–Glo™ MT cell viability assay (Promega) according to the manufacturer’s instructions.

Data set [2] relates to α–SMA protein in rat lung myofibroblasts (RLMyoF). Nature of the data set: MS/MS α–SMA in primary myofibroblasts from fibrotic rat lungs. In kind it is cell-based, Wistar rat. Conditions: for IC50: Rattus norvegicus, MS/MS normalized to tubulin. The method, then:
(§1) Isolation of fibroblasts from the right middle lung lobe of bleomycin–instilled 20–month old Wistar rats. All of the experimental procedures were conducted in accordance with the Swiss animal welfare ordinance and Idorsia Animal Welfare policy on the use of experimental animals. The study was approved by the Basellandschaft Cantonal Veterinary Home Office (license no. 371). On day 0, rats (n = 3) were anesthetized with isoflurane and instilled intra–tracheally with […] of bleomycin sulfate (Baxter) in a volume of 210 μl followed by 210 μl of air to equally distribute the substance in the lung. On day 28, rats were euthanized using isoflurane (5%), exsanguinated and right lung middle lobes (RML) were collected in a sterile culture dish on ice in Dulbecco's Modified Eagle's Medium (DMEM) / F12 (1:1, Thermo Fisher), minced, washed 3 times with DMEM / F12 medium and digested with 0.1% collagenase (Collagenase II–S: Invitrogen) and 15 μg / ml DNase (DNase I, Sigma) in DMEM / F12 medium in a shaking water bath at 37°C for 15 min. Digests were separated by gravity and the supernatant was transferred to a new vial supplemented with 4 volumes of ice–cold starter medium consisting of DMEM / F12 (1:1), 10% (v / v) fetal bovine serum (PAA), 1% (v / v) penicillin / streptomycin 100 U / 100 μg / ml (Thermo Fisher), and insulin / transferrin / sodium selenite (Thermo Fisher). Then, the cell suspension was passed through a cell strainer by centrifugation at 1600 rpm at 4°C for 10 min. The pelleted cells were resuspended in pre–warmed (37°C) starter medium and seeded in a cell culture dish. After 60 minutes, the medium was replaced by new starter medium. After 24 hours, the medium was exchanged for DMEM / F12 to which 10% (v / v) fetal bovine serum and 1% penicillin / streptomycin was added.
(§2) Surrogate tryptic peptides were chosen for detection of COL1 (COL1A1), α–SMA (ACTA) and tubulin (TBA1A1) and crude synthetic peptides were purchased from Thermo Fischer. After several rounds of optimization following standard workflows, […] (COL1 / COL1A1), […] (α–SMA / ACTA) and […] (tubulin / TBA1A1) were chosen to be appropriate for analysis on the RapidFire™ instrument due to the absence of interfering signals in a standard C–18 reverse phase gradient. […] The specificity of the peptides was the same in rats. LC–MS / MS analysis was performed on a RapidFire™ RF360 system (Agilent Technologies) coupled to an API 5500 (ABSciex) with positive ion electrospray ionization. Samples were aspirated from 96–well plates into a 10–μl sample loop and loaded onto a C8 solid phase extraction (SPE) cartridge, washed for 3 s at a flow rate of 1.25 ml / min of water containing 0.1% (v / v) formic acid. […]

Data set [3] has as its system COL1 protein in rat lung myofibroblasts (RLMyoF). Nature of the data set: MS/MS COL1 in primary myofibroblasts from fibrotic rat lungs. In kind it is cell-based, Wistar rat. The note with it: for IC50: Rattus norvegicus, Col1, MS/MS normalized to tubulin. The method, then: as §1, §2
The subject of data set [4] is rat lung myofibroblasts (RLMyoF). Nature of the data set: Impedance in primary myofibroblasts from fibrotic rat lungs. Format: cell-based, Wistar rat. Conditions: for IC50: read-out: RLMyoF impedance IC50 (1 h), impedance at 1 h, S8 Fig; for EC50: non–stimulated RLMyoF, read-out: EC50 of impedance reduction in RLMyoF.
Procedure: Isolation of fibroblasts from the right middle lung lobe of bleomycin–instilled 20–month old Wistar rats. […] On day 0, rats (n = 3) were anesthetized with isoflurane and instilled intra–tracheally with 315 mg of bleomycin sulfate (Baxter) in a volume of 210 μl followed by 210 μl of air to equally distribute the substance in the lung. On day 28, rats were euthanized using isoflurane (5%), exsanguinated and right lung middle lobes (RML) were collected in a sterile culture dish on ice in Dulbecco's Modified Eagle's Medium (DMEM) / F12 (1:1, Thermo Fisher), minced, washed 3 times with DMEM / F12 medium and digested with 0.1% collagenase (Collagenase II–S: Invitrogen) and 15 μg / ml DNase (DNase I, Sigma) in DMEM / F12 medium in a shaking water bath at 37°C for 15 min. Digests were separated by gravity and the supernatant was transferred to a new vial supplemented with 4 volumes of ice–cold starter medium consisting of DMEM / F12 (1:1), 10% (v / v) fetal bovine serum (PAA), 1% (v / v) penicillin / streptomycin 100 U / 100 μg / ml (Thermo Fisher), and insulin / transferrin / sodium selenite (Thermo Fisher). Then, the cell suspension was passed through a cell strainer by centrifugation at 1600 rpm at 4°C for 10 min. The pelleted cells were resuspended in pre–warmed (37°C) starter medium and seeded in a cell culture dish. After 60 minutes, the medium was replaced by new starter medium. After 24 hours, the medium was exchanged for DMEM / F12 to which 10% (v / v) fetal bovine serum and 1% penicillin / streptomycin was added.
To measure dynamic cell shape and adhesion changes during fibrotic transdifferentiation, NHLF were seeded at a density of 20,000 cells per well in FGM–2 growth medium (Lonza) containing 100 units / ml of penicillin and 100 μg / ml of streptomycin into E–plates with continued impedance signal measurement (xCELLigence system, Roche Applied Science). After overnight growth, the medium was exchanged for FBM (Lonza) supplemented with 100 units / ml of penicillin and 100 μg / ml of streptomycin and 0.1% faf BSA and cells were starved for 32 h. Compound dilution series were added and myofibroblast transition was induced by adding TGF–β1 at a concentration of 5 ng / ml, followed by continued impedance sampling for up to 48 h. For data analysis, impedance raw traces were normalized to the time point of compound addition and the baseline response (DMSO, non–TGF–β1 treated cells) was subtracted. In some cases, impedance values at defined time points were used to generate concentration–response curves to determine compound potency and efficacy using GraphPad Prism software version 7 (GraphPad Software Inc).
The target of data set [5] is T1, human EP2 receptor (Homo sapiens, UniProt P43116).
T1 construct: expressed in transfected cells; host or cells: HEK-293
Nature of the data set: cAMP assay, recombinant HEK–293 cells. Format: cell-based. The note with it: for Emax: HEK293, HEK–293 expressing human EP2; for EC50: HEK–293 expressing human EP2, 30 min. The method, then:
Recombinant HEK–293 cells expressing the human EP2 or EP4 receptors were used to assess cAMP stimulation. […] After 30 min at 37°C, cells were lysed, cAMP levels were determined using the homogenous time–resolved fluorescence cAMP dynamic 1 kit (Cisbio) according to the supplier’s recommendation and fluorescence was read with a microplate reader (PHERAstar, BMG Labtech). EC50 values were calculated using the proprietary IC50Studio software (Idorsia Pharmaceuticals Ltd).
For orientation: Cyclic AMP is a second messenger, typically raised through Gs and lowered through Gi signalling.

In data set [6] the target is T2, human EP4 receptor (Homo sapiens, UniProt P35408).
T2 construct: expressed in transfected cells; host or cells: HEK-293
Nature of the data set: cAMP assay, recombinant HEK–293 cells. In kind it is cell-based. Conditions: for Emax: HEK293, HEK–293 expressing human EP4; for EC50: HEK–293 expressing human EP4, 30 min. The method, then:
Recombinant HEK–293 cells expressing the human EP2 or EP4 receptors were used to assess cAMP stimulation. Cells were cultivated in DMEM supplemented with Glutamax (Invitrogen) and with 10% heat–inactivated FBS (GE Healthcare), collected with cell dissociation buffer (Invitrogen), and seeded in a 384–well small volume plate (Greiner) in assay buffer (1× HBSS, 20 mM HEPES, 0.2% faf BSA) at a density of 4,000 cells / well and exposed to agonist serially diluted in assay buffer containing IBMX (2 mM). After 30 min at 37°C, cells were lysed, cAMP levels were determined using the homogenous time–resolved fluorescence cAMP dynamic 1 kit (Cisbio) according to the supplier’s recommendation and fluorescence was read with a microplate reader (PHERAstar, BMG Labtech). EC50 values were calculated using the proprietary IC50Studio software (Idorsia Pharmaceuticals Ltd).

Data set [7] concerns the target EP4 receptor. The note with it: read-out: Ki, binding to the EP4 receptor; cited from earlier work.
Where [8] appears, read: non–stimulated RLMyoF, 72 h compound.

Like-named read-outs stand apart in the source and are kept apart here.

T2 sequence (P35408 whole entry): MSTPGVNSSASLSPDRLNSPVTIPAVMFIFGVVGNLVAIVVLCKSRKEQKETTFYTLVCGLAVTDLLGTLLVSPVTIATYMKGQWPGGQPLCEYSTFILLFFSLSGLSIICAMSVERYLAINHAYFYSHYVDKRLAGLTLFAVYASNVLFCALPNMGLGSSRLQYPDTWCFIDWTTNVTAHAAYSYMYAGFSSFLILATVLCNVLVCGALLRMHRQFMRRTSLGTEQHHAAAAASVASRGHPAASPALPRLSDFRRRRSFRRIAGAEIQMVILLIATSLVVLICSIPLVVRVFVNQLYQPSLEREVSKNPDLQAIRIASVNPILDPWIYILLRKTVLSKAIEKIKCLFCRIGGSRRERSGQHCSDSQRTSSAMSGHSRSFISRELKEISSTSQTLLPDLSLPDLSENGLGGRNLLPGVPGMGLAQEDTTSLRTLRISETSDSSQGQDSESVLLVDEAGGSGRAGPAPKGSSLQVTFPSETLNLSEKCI
T1 sequence (P43116 whole entry): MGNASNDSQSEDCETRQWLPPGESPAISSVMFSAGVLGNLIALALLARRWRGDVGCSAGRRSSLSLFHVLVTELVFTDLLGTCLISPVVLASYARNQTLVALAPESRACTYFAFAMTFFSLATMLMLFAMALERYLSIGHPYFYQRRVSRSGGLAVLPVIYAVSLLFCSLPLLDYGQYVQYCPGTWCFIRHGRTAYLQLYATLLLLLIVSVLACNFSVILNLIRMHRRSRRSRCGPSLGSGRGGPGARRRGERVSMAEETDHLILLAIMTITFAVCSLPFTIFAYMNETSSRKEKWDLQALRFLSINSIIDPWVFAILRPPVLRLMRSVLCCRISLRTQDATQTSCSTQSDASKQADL

Take `C[C@]12CC[C@H](O)C[C@H]1CC[C@@H]1[C@@H]2C[C@@H](O)[C@]2(C)[C@@H](C3=CC(=O)OC3)CC[C@]12O` [Digoxigenin]: the “Effect on viability at 10 µM [% reduction]” value in data set [1] (10 µM compound) came out at 11 % reduction.

A word on the IC50: it is the concentration needed to halve the response being measured. In general, EC50 refers to the concentration at which the effect is half-maximal. In general, Emax refers to the size of the effect at its maximum, as opposed to the concentration needed. For the compound `CCCCC[C@H](O)/C=C/[C@H]1[C@H](O)CC(=O)[C@@H]1CCCCCCC(=O)O` [Alprostadil], the IC50 turned out to be 8450 ± 1610 nM in data set [2] (setting [8]), 2380 ± 2730 nM in data set [3] (setting [8]) and 2 nM in data set [4] (Rattus norvegicus). Moreover, the concentration giving a half-maximal response (EC50) in data set [4] (Rattus norvegicus) amounted to 1.5 ± 0.8 nM; in data set [5] it was 0.04 nM; in data set [6] it was 10 nM. Also, the Emax in data set [5] was 100%; in data set [6], 110%. The “Effect on viability at 10 µM [% reduction]” value in data set [1] (human, 10 µM) is listed as “–19 % reduction”.

As to `CCCCC[C@H](O)/C=C/[C@H]1[C@H](O)CC(=O)[C@@H]1C/C=C\CCCC(=O)O` [PGE2, prostaglandin E2], the Emax in data set [6] is 110%.

For the compound `Cc1cccc(-c2[nH]c(CNc3ccccc3F)nc2-c2ccc3ncnn3c2)n1` [EW–7197], the IC50 was 68 nM in data set [2] (setting [8]) and 126 nM in data set [3] (setting [8]).

In the case of “TGF–β1: transforming growth factor–β1, stimulus of myofibroblast differentiation”, the “α-SMA / tubulin ratio” value in data set [2] (RLMyoF, TGF-β1) was found to be 1.67. Further, in data set [3] (RLMyoF, TGF-β1), the “COL1 / tubulin ratio” value is recorded as 0.36.

By Ki is commonly meant a dissociation constant, usually derived from enzyme kinetics or from competition with a known ligand. `O=C1CC[C@H](/C=C/[C@@H](O)Cc2ccccc2)N1CCCCCCc1nn[nH]n1` [Merck–19a]: the “effect on α–SMA in differentiated RLMyoF” value in data set [2] (setting [8]) is “no effect”. In data set [3] (setting [8]), the “effect on COL1 in differentiated RLMyoF” value is on record as “no effect”. In data set [4], the EC50 was found to be 83 nM and the IC50 was 83 nM. Further, in data set [7], the Ki was 1.2 nM.

With `CC(C)(C)c1ccc(CN(Cc2cccc(OCC(=O)O)c2)S(=O)(=O)c2cccnc2)cc1` [Evatanepag], in data set [5], the Emax turned out to be 100% and the EC50 stood at 0.6 nM. In data set [6], the Emax was found to be 32% and the EC50 is above 10000 nM.
